Where “and” joins values, the source holds several entries; their conditions need not be identical. Equal entries are not always repeated. Where two headings read alike, the source gives them in different places.
Legend:
[1] = target: T1, dengue virus capping enzyme (Dengue virus type 2, UniProt P29990); assay: biochemical; type: binding, dengue virus type 2 (strain 16681)
T1 sequence (P29990 2492-2758): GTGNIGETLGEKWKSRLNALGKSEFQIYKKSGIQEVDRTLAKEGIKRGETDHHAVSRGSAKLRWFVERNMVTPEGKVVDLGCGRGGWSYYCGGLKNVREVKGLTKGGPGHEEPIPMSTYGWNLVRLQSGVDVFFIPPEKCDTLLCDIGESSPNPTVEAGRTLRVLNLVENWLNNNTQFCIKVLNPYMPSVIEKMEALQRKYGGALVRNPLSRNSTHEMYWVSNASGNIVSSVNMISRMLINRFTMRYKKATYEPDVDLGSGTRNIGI

[2] = target: yellow fever virus capping enzyme (Yellow fever virus, UniProt P03314); assay: biochemical; type: binding, yellow fever virus (strain 17D); conditions: read-out: FP_YF_KI_AVG_YF_M
[3] = test system: dengue type 2 virus subgenomic replicon (BHK-pD2hRucPac); assay: Antiviral (replicon) assay, Renilla luciferase; type: cell-based; conditions: Table 2-1; read-out: Replicon Assay_EC50_M
[4] = test system: BHK-pD2hRucPac cells; assay: Cell viability (CellTiter-Glo) in replicon assay; conditions: read-out: Replicon Assay_CC50_M; Table 2-1

Sequence of yellow fever virus capping enzyme (P03314 2507-2774 limits assumed): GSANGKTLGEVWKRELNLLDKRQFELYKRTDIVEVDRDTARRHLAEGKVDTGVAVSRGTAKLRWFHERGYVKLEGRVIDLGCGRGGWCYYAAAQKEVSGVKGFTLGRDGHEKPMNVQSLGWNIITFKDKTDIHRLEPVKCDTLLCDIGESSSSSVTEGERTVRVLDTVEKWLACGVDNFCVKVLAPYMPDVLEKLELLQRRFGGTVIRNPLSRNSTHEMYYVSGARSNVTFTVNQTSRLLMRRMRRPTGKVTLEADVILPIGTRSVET

Row | Compound | Ki ([1]; read-out: FP_DEN_Ki_AVG_DEN_M) | Ki [2] | EC50 [3] | CC50 [4] | Ki ([1]; Ki (GTP displacement)) | Ki ([1]; read-out: Ki (GTP displacement))
1 | COc1ccccc1C=C1SC(=S)N(C(Cc2ccccc2)C(=O)O)C1=O (racemic) [BG101] | 9 µM | 8 µM | 42 µM | 46 µM |  | 
2 | O=C(O)C(Cc1ccccc1)N1C(=O)C(=Cc2ccccc2Cl)SC1=S (racemic) [BG135] | 4 µM | 5 µM | 39 µM | 44 µM |  | 
3 | CC(C)(C)c1ccc(CC2SC(=S)N(CCC(=O)O)C2=O)cc1 (racemic) [BG296] | 10 µM |  | 167 µM | 105 µM |  | 
4 | O=C1C(=Cc2cccc(Br)c2)SC(=S)N1CN1CCCCC1 [BG21] | 42 µM | 27 µM |  |  |  | 
5 | O=C(CN1C(=O)/C(=C/c2ccccc2Cl)SC1=S)Nc1ccccc1C(=O)O [BG100] | 3 µM | 5 µM | 37 µM | 49 µM |  | 
6 | C=CCOc1ccc(Cl)cc1/C=C1\SC(=S)NC1=O [BG114] | 2 µM | 6 µM | 23 µM | 27 µM |  | 
7 | O=C(CN1C(=O)C(=Cc2ccccc2Cl)SC1=S)Nc1ccc(C(=O)O)cc1 [BG119] | 4 µM | 5 µM | 42 µM | 58 µM |  | 
8 | O=C(CCN1C(=O)C(=Cc2ccc(Cl)cc2)SC1=S)Nc1ccccc1C(=O)O [BG120] | 2 µM | 2 µM | 23 µM | 31 µM |  | 
9 | O=C(CCN1C(=O)C(=Cc2ccc(Cl)cc2)SC1=S)Nc1cccc(C(=O)O)c1 [BG121] | 3 µM | 5 µM | 33 µM | 39 µM |  | 
10 | O=C(CCN1C(=O)C(=Cc2ccc(Cl)cc2)SC1=S)Nc1ccc(C(=O)O)cc1 [BG122] | 3 µM | 5 µM | 41 µM | 58 µM |  | 
11 | O=C(CN1C(=O)C(=Cc2ccccc2Cl)SC1=S)Nc1cccc(C(=O)O)c1 [BG123] | 4 µM | 5 µM | 75 µM | 103 µM |  | 
12 | O=C(CCCN1C(=O)/C(=C/c2ccc(F)cc2)SC1=S)Nc1cccc(C(=O)O)c1 [BG124] | 14 µM | 18 µM | 80 µM | 56 µM |  | 
13 | CCN(CC)c1ccc(N2C(=O)/C(=C/c3ccc(C(=O)O)cc3)SC2=S)cc1 [BG125] | 2 µM | 3 µM |  | 15 µM |  | 
14 | CCOc1ccc(N2C(=O)C(=Cc3ccccc3C(=O)O)SC2=S)cc1 [BG126] | 17 µM | 19 µM | 52 µM | 51 µM |  | 
15 | O=C1NC(=S)SC1=Cc1ccccc1OS(=O)(=O)c1ccc([N+](=O)[O-])cc1 [BG127] | 5 µM | 6 µM | 109 µM | 40 µM |  | 
16 | Cc1cccc(N2C(=O)/C(=C/c3ccc(C(=O)O)cc3)SC2=S)c1C [BG128] | 11 µM | 13 µM | 45 µM | 42 µM |  | 
17 | O=C(O)c1ccccc1/C=C1\SC(=S)N(c2cccc(C(F)(F)F)c2)C1=O [BG129] | 11 µM | 19 µM |  | 47 µM |  | 
18 | Cc1ccc(N2C(=O)/C(=C/c3ccccc3C(=O)O)SC2=S)c(C)c1 [BG130] | 8 µM | 15 µM | 61 µM | 50 µM |  | 
19 | O=C(CN1C(=O)/C(=C/c2ccccc2F)SC1=S)Nc1cccc(C(=O)O)c1 [BG131] | 6 µM | 12 µM | 54 µM | 71 µM |  | 
20 | O=C(CN1C(=O)/C(=C/c2ccccc2F)SC1=S)Nc1ccccc1C(=O)O [BG132] | 3 µM | 3 µM | 114 µM | 50 µM |  | 
21 | CC(C(=O)O)N1C(=O)C(=Cc2ccc(Cl)cc2Cl)SC1=S (stereo not drawn) [BG133] | 7 µM | 14 µM | 126 µM | 77 µM |  | 
22 | CC(C)C(C(=O)O)N1C(=O)/C(=C/c2ccccc2Cl)SC1=S (stereo not drawn) [BG134] | 15 µM | 15 µM | 61 µM | 66 µM |  | 

Row | Compound | Ki ([1]; read-out: FP_DEN_Ki_AVG_DEN_M) | Ki [2] | EC50 [3] | CC50 [4] | Ki ([1]; Ki (GTP displacement)) | Ki ([1]; read-out: Ki (GTP displacement))
23 | Cc1cccc(/C=C2\SC(=S)N(CN3CCCCC3)C2=O)c1 [BG136] | 16 µM | 27 µM | 41 µM | 49 µM |  | 
24 | COc1ccc(N2C(=O)/C(=C/c3cc([N+](=O)[O-])cc(OC)c3O)SC2=S)cc1 [BG140] |  | 2 µM | 13 µM | 23 µM |  | 
25 | COc1cc(C=C2SC(=S)NC2=O)ccc1OS(=O)(=O)c1ccccc1[N+](=O)[O-] [BG141] |  | 2 µM | 24 µM | 27 µM |  | 
26 | CCc1ccc(C=C2SC(=O)NC2=O)cc1 [BG144] | 20 µM | 38 µM |  |  |  | 
27 | O=C1NC(=O)C(=Cc2cc3c(cc2[N+](=O)[O-])OCO3)S1 [BG145] | 8 µM | 9 µM |  |  |  | 
28 | O=C1NC(=O)C(=Cc2ccccc2[N+](=O)[O-])S1 [BG146] | 55 µM | 66 µM |  |  |  | 
29 | O=C(O)CCN1C(=O)/C(=C/c2ccc(-c3ccc(Cl)cc3Cl)o2)SC1=S [BG177] |  | 1 µM | 30 µM and 26 µM | 30 µM and 31 µM |  | 
30 | CC(C)c1ccc(C=C2SC(=S)N(CCC(=O)O)C2=O)cc1 [BG183] | 12 µM | 13 µM |  |  |  | 
31 | CC(C)(C)c1ccc(/C=C2\SC(=S)N(CCC(=O)O)C2=O)cc1 [BG184] |  |  | 46 µM | 61 µM |  | 
32 | O=C(O)CCN1C(=O)/C(=C/c2ccc(-c3cccc(Cl)c3)o2)SC1=S [BG188] |  |  | 51 µM | 51 µM |  | 
33 | COc1ccccc1/C=C1\SC(=O)N(CC(=O)O)C1=O [BG215] | 866 µM |  |  | 100 µM |  | 
34 | O=C(O)CN1C(=O)C(=Cc2cc(Br)cc(Cl)c2O)SC1=S [BG222] | ≥ 100 µM | ≥ 100 µM |  |  |  | 
35 | O=C(O)CN1C(=O)/C(=C/c2ccc(F)c(Br)c2)SC1=S [BG224] | 27 µM | 27 µM |  |  |  | 
36 | O=C(O)CN1C(=O)C(=Cc2cc(Cl)cc(Cl)c2O)SC1=S [BG225] | ≥ 100 µM | ≥ 100 µM |  |  |  | 
37 | O=C(O)CN1C(=O)SC(=Cc2ccc(Cl)cc2)C1=O [BG226] |  | ≥ 100 µM |  |  |  | 
38 | O=C(O)CN1C(=O)C(=Cc2cccc(Cl)c2Cl)SC1=S [BG227] | 27 µM | 34 µM |  |  |  | 
39 | O=C(O)CN1C(=O)/C(=C/c2ccc(Cl)c(Cl)c2)SC1=S [BG228] | 11 µM | 16 µM |  |  |  | 
40 | O=C(O)CN1C(=O)C(=Cc2ccc(Cl)cc2Cl)SC1=S [BG229] | 24 µM | 25 µM |  |  |  | 
41 | O=C(O)CN1C(=O)C(=Cc2cc(Br)ccc2F)SC1=S [BG230] | 17 µM | 23 µM |  |  |  | 
42 | NC(=O)c1c(NC(=O)CN2C(=O)C(=Cc3ccc(Cl)cc3Cl)SC2=S)sc2c1CCCC2 [BG265] | 46 µM |  |  |  |  | 
43 | CCc1ccc(/C=C2\SC(=S)N(CCC(=O)Nc3ccc(C(=O)O)cc3)C2=O)cc1 [BG273] | 4 µM |  |  |  |  | 
44 | CCc1ccc(C=C2SC(=S)N(CCC(=O)Nc3ccccc3C(=O)O)C2=O)cc1 [BG274] |  |  | 63 µM | 60 µM |  | 

Row | Compound | Ki ([1]; read-out: FP_DEN_Ki_AVG_DEN_M) | Ki [2] | EC50 [3] | CC50 [4] | Ki ([1]; Ki (GTP displacement)) | Ki ([1]; read-out: Ki (GTP displacement))
45 | O=C(O)CCN1C(=O)/C(=C/c2ccc(-c3ccc(Cl)c(Cl)c3)o2)SC1=S [BG281] | 2 µM |  |  |  |  | 
46 | O=C(O)CCN1C(=O)C(=Cc2ccc(-c3ccc(Br)cc3)o2)SC1=S [BG286] | ≥ 100 µM |  |  |  |  | 
47 | O=C(CCN1C(=O)/C(=C/c2ccccc2Cl)SC1=S)Nc1ccccc1C(=O)O [BG289] |  |  | 92 µM | 79 µM |  | 
48 | O=C(O)CCN1C(=O)/C(=C/c2ccc(-c3ccccc3Cl)o2)SC1=S [BG290] | ≥ 100 µM |  |  |  |  | 
49 | O=C(CCN1C(=O)/C(=C/c2cccc(Br)c2)SC1=S)Nc1ccccc1C(=O)O [BG291] |  |  | 75 µM | 68 µM |  | 
50 | O=C(O)CCN1C(=O)C(=Cc2ccc(-c3ccccc3)o2)SC1=S [BG292] | ≥ 100 µM |  |  |  |  | 
51 | CC(C)(C)c1ccc(C=C2SC(=S)N(CCC(=O)NS(C)(=O)=O)C2=O)cc1 [BG297] | 3 µM |  | 78 µM | 86 µM |  | 
52 | COc1cccc(/C=C2\SC(=S)N(CC(=O)O)C2=O)c1OC [BG311] |  | 34 µM |  | 100 µM |  | 
53 | O=C(O)CN1C(=O)C(=CC=Cc2ccccc2)SC1=S [BG326] | 77 µM | ≥ 100 µM |  |  |  | 
54 | COc1ccc(OC)c(/C=C2\SC(=S)N(CC(=O)O)C2=O)c1 [BG-309] | ≥ 100 µM | ≥ 100 µM |  | 100 µM |  | 
55 | COc1ccccc1C=C1SC(=S)N(CCC(=O)O)C1=O [BG-310] |  | 44 µM |  | 100 µM |  | 
56 | O=C(O)CN1C(=O)/C(=C/c2cccc(Cl)c2Cl)SC1=S [BG-317] |  |  |  |  | 27 µM | 
57 | O=C(O)CN1C(=O)/C(=C/c2ccc(Cl)c(Cl)c2)SC1=S [BG-318] |  |  |  |  | 11 µM and 11.3 µM | 
58 | O=C(O)CN1C(=O)/C(=C/c2ccc(Cl)cc2Cl)SC1=S [BG-319] |  |  |  |  | 24 µM | 
59 | O=C(O)CCN1C(=O)C(=Cc2ccc(F)cc2)SC1=S [BG-321] | ≥ 100 µM | ≥ 100 µM |  |  |  | 
60 | CC(C)c1ccc(/C=C2\SC(=S)N(CCC(=O)O)C2=O)cc1 [BG-322] |  |  |  |  | 12 µM | 
61 | O=C(O)CN1C(=O)/C(=C/c2ccccc2)SC1=S [BG-325] | ≥ 100 µM | ≥ 100 µM |  |  |  | 
62 | O=C(O)CCN1C(=O)C(=Cc2ccccc2)SC1=S [BG-327] | ≥ 100 µM | ≥ 100 µM |  |  |  | 
63 | O=C(O)CCN1C(=O)C(=Cc2ccc(Cl)c(Cl)c2)SC1=S [BG-328] | 14 µM | 12 µM |  |  |  | 13.6 µM
64 | O=C(O)CCN1C(=O)/C(=C/c2ccccc2F)SC1=S [BG-329] | ≥ 100 µM | ≥ 100 µM |  |  |  | 
65 | O=C(O)CCCN1C(=O)/C(=C/c2ccc(Cl)cc2Cl)SC1=S [BG-331] | 15 µM | 25 µM |  |  |  | 
66 | COC(=O)CCN1C(=O)C(=Cc2ccc(Cl)cc2Cl)SC1=S [BG-332] | ≥ 100 µM | ≥ 100 µM |  |  |  | 
